Assay results: ChEMBL document CHEMBL3885861, “Open TG-GATES”

Species: Rattus norvegicus
Assay: Open TG-GATES - Regimen: Single
Type: toxicity, organism-based, Sprague-Dawley
Set-up: regimen Single, gender Male, age 6 weeks
Details: in vivo, po, 0 mg/kg, route gavage, dose level Control; for APTT / Bas / Eos / Fbg / Hb / Ht / Lym / MCH / MCHC / MCV / Mono / Neu / PT / Plat / RBC / Ret / WBC: tissue Blood; for KIDNEY_L / KIDNEY_R / KIDNEY_TOTAL: tissue Kidney; for LIVER: tissue Liver; for A/G / ALP / ALT / AST / BUN / CRE / Ca / Cl / DBIL / GLC / IP / K / LDH / Na / PL / RALB / TBIL / TC / TG / TP / gamma-GTP: tissue Plasma

Compound CN1C(C(=O)Nc2ccccn2)=C(O)c2sc(Cl)cc2S1(=O)=O [LORNOXICAM] has a TERMINAL_BW (3 h) of 223 g, an APTT (3 h) of 20 s and a Bas (3 h) of 1%. The Eos (3 h) was 1.4%, the Fbg (3 h) was 213.2 mg/dL and the Hb (3 h) was 13.4 g/dL. For the same compound, the Ht (3 h) was 39.7%, the Lym (3 h) was 78.8% and the MCH (3 h) was 21 pg. For the same compound, the MCHC (3 h) was 33.8%, the MCV (3 h) was 62.2 fL and the Mono (3 h) was 2.8%. For the same compound, the Neu (3 h) was 16.4%, the PT (3 h) was 11.9 s and the Plat (3 h) was 135.7 x10_4/uL. It also gave an RBC (3 h) of 638 x10_4/ul, a Ret (3 h) of 6.8% and a WBC (3 h) of 93 x10_2/uL. The KIDNEY_L (3 h) was 1 g, the KIDNEY_R (3 h) was 1 g and the KIDNEY_TOTAL (3 h) was 2 g. It also gave an LIVER (3 h) of 10.1 g, an A/G (3 h) of 1.7 and an ALP (3 h) of 1010.4 IU/L. The ALT (3 h) was 36.2 IU/L, the AST (3 h) was 73 IU/L and the BUN (3 h) was 11.8 mg/dL. It also gave a CRE (3 h) of 0.4 mg/dL, a Ca (3 h) of 10.5 mg/dL and a Cl (3 h) of 103.4 meq/L. For the same compound, the DBIL (3 h) was 0.076 mg/dL, the GLC (3 h) was 197.2 mg/dL and the IP (3 h) was 8.6 mg/dL. It also gave a K (3 h) of 3.7 meq/L, an LDH (3 h) of 168 IU/L and a Na (3 h) of 141.4 meq/L. For the same compound, the PL (3 h) was 133.4 mg/dL, the RALB (3 h) was 3.5 g/dL and the TBIL (3 h) was 0.1 mg/dL. The TC (3 h) was 71.2 mg/dL, the TG (3 h) was 80 mg/dL and the TP (3 h) was 5.5 g/dL. The gamma-GTP (3 h) was 1.4 IU/L, the TERMINAL_BW (6 h) was 219.8 g and the APTT (6 h) was 19.8 s. It also gave a Bas (6 h) of 0.8%, an Eos (6 h) of 1% and a Fbg (6 h) of 221.2 mg/dL. The Hb (6 h) was 13.2 g/dL, the Ht (6 h) was 39.3% and the Lym (6 h) was 81.2%. For the same compound, the MCH (6 h) was 20.9 pg, the MCHC (6 h) was 33.6% and the MCV (6 h) was 62.1 fL. For the same compound, the Mono (6 h) was 2.6%, the Neu (6 h) was 14.2% and the PT (6 h) was 12 s. It also gave a Plat (6 h) of 119.7 x10_4/uL, an RBC (6 h) of 632.4 x10_4/ul and a Ret (6 h) of 7.2%. For the same compound, the WBC (6 h) was 109.1 x10_2/uL, the KIDNEY_L (6 h) was 0.9 g and the KIDNEY_R (6 h) was 1 g. The KIDNEY_TOTAL (6 h) was 1.9 g, the LIVER (6 h) was 9.6 g and the A/G (6 h) was 1.6. For the same compound, the ALP (6 h) was 765.4 IU/L, the ALT (6 h) was 33.4 IU/L and the AST (6 h) was 68.8 IU/L. The BUN (6 h) was 11 mg/dL, the CRE (6 h) was 0.4 mg/dL and the Ca (6 h) was 10.4 mg/dL. For the same compound, the Cl (6 h) was 103 meq/L, the DBIL (6 h) was 0.066 mg/dL and the GLC (6 h) was 196.8 mg/dL. For the same compound, the IP (6 h) was 9.1 mg/dL, the K (6 h) was 3.9 meq/L and the LDH (6 h) was 209.2 IU/L. The Na (6 h) was 140.8 meq/L, the PL (6 h) was 146 mg/dL and the RALB (6 h) was 3.4 g/dL. The TBIL (6 h) was 0.1 mg/dL, the TC (6 h) was 84.8 mg/dL and the TG (6 h) was 64.8 mg/dL. It also gave a TP (6 h) of 5.6 g/dL, a gamma-GTP (6 h) of 0.8 IU/L and a TERMINAL_BW (9 h) of 218.6 g. For the same compound, the APTT (9 h) was 20.3 s, the Bas (9 h) was 0.8% and the Eos (9 h) was 0.8%. It also gave a Fbg (9 h) of 230.6 mg/dL, a Hb (9 h) of 13.3 g/dL and a Ht (9 h) of 39.8%. It also gave a Lym (9 h) of 74.4%, an MCH (9 h) of 20.9 pg and an MCHC (9 h) of 33.4%. For the same compound, the MCV (9 h) was 62.7 fL, the Mono (9 h) was 3.2% and the Neu (9 h) was 20.4%. It also gave a PT (9 h) of 12.5 s, a Plat (9 h) of 119.2 x10_4/uL and an RBC (9 h) of 634.2 x10_4/ul. For the same compound, the Ret (9 h) was 7.6%, the WBC (9 h) was 126.9 x10_2/uL and the KIDNEY_L (9 h) was 1 g. It also gave a KIDNEY_R (9 h) of 1 g, a KIDNEY_TOTAL (9 h) of 1.9 g and an LIVER (9 h) of 9.3 g. For the same compound, the A/G (9 h) was 1.7, the ALP (9 h) was 766.8 IU/L and the ALT (9 h) was 33.2 IU/L. For the same compound, the AST (9 h) was 65.4 IU/L, the BUN (9 h) was 9.8 mg/dL and the CRE (9 h) was 0.3 mg/dL. For the same compound, the Ca (9 h) was 10.5 mg/dL, the Cl (9 h) was 103.6 meq/L and the DBIL (9 h) was 0.076 mg/dL. For the same compound, the GLC (9 h) was 197.8 mg/dL, the IP (9 h) was 9.6 mg/dL and the K (9 h) was 3.8 meq/L. It also gave an LDH (9 h) of 162.2 IU/L, a Na (9 h) of 142.2 meq/L and a PL (9 h) of 136.8 mg/dL. For the same compound, the RALB (9 h) was 3.5 g/dL, the TBIL (9 h) was 0.1 mg/dL and the TC (9 h) was 75.2 mg/dL. The TG (9 h) was 60.6 mg/dL, the TP (9 h) was 5.6 g/dL and the gamma-GTP (9 h) was 1.2 IU/L. For the same compound, the TERMINAL_BW (24 h) was 238.4 g, the APTT (24 h) was 19.9 s and the Bas (24 h) was 0.2%. It also gave an Eos (24 h) of 1%, a Fbg (24 h) of 225.8 mg/dL and a Hb (24 h) of 13.5 g/dL. It also gave a Ht (24 h) of 40.7%, a Lym (24 h) of 80% and an MCH (24 h) of 20.9 pg. For the same compound, the MCHC (24 h) was 33.3%, the MCV (24 h) was 62.6 fL and the Mono (24 h) was 3.2%. The Neu (24 h) was 15.2%, the PT (24 h) was 11.6 s and the Plat (24 h) was 133.9 x10_4/uL. For the same compound, the RBC (24 h) was 649.4 x10_4/ul, the Ret (24 h) was 6.8% and the WBC (24 h) was 101.7 x10_2/uL. The KIDNEY_L (24 h) was 1 g, the KIDNEY_R (24 h) was 1 g and the KIDNEY_TOTAL (24 h) was 2 g. The LIVER (24 h) was 11.3 g, the A/G (24 h) was 1.6 and the ALP (24 h) was 874.6 IU/L. The ALT (24 h) was 35.2 IU/L, the AST (24 h) was 65.8 IU/L and the BUN (24 h) was 14.8 mg/dL. For the same compound, the CRE (24 h) was 0.4 mg/dL, the Ca (24 h) was 10.8 mg/dL and the Cl (24 h) was 103.8 meq/L. For the same compound, the DBIL (24 h) was 0.1 mg/dL, the GLC (24 h) was 218 mg/dL and the IP (24 h) was 7.3 mg/dL. For the same compound, the K (24 h) was 4 meq/L, the LDH (24 h) was 177.6 IU/L and the Na (24 h) was 141.4 meq/L. It also gave a PL (24 h) of 138.4 mg/dL, an RALB (24 h) of 3.5 g/dL and a TBIL (24 h) of 0.2 mg/dL. The TC (24 h) was 69.2 mg/dL, the TG (24 h) was 101.2 mg/dL and the TP (24 h) was 5.6 g/dL. It also gave a gamma-GTP (24 h) of 1 IU/L.
